Laboratory results taken from BindingDB's records for doi:10.1016/j.chembiol.2004.08.006 (University of Washington, 2004).

Key:
Assay in all cases: Inhibition Assay
Coagulation factor VIII [1] = molecular target: T1, Coagulation factor VIII (Homo sapiens, UniProt P00451); settings: 37 °C
Excerpt: Inhibition of factor VIII C2 domain.

Coagulation factor VIII [2] = molecular target: T1, Coagulation factor VIII; settings: pH 8
Description: Inhibition of factor VIII ELISA. The interaction between factor VIII and PS was measured by using an enzyme-linked immunoadsorbent assay (ELISA).

Coagulation factor VIII [3] = molecular target: T1, Coagulation factor VIII; settings: pH 7.9
Excerpt: Inhibition of factor X activation assay. A commercially available chromogenic assay that measures the rate of factor X activation to measure inhibiton of the cofactor function of factor VIII.

T1 sequence (P00451 20-759 limits assumed): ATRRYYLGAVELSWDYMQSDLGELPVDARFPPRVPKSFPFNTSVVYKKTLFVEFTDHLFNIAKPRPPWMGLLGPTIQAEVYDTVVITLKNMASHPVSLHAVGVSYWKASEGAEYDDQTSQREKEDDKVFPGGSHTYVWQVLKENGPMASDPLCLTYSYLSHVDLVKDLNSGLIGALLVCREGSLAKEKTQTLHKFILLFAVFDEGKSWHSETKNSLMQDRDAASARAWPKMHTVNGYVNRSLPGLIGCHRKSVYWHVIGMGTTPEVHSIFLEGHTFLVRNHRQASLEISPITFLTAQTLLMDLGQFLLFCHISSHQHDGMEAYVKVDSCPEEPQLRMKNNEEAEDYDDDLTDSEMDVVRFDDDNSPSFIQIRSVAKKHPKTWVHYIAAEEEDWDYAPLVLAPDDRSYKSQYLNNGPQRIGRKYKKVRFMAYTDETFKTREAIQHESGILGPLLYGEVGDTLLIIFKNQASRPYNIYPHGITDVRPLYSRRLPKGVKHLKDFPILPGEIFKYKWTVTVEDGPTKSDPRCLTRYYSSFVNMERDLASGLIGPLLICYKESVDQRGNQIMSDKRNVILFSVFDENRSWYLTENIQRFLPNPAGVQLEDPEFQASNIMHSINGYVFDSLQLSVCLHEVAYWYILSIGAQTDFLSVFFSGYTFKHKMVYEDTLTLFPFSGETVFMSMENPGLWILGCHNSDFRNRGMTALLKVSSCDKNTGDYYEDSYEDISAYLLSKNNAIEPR
T1 sequence (P00451 1668-2351 limits assumed): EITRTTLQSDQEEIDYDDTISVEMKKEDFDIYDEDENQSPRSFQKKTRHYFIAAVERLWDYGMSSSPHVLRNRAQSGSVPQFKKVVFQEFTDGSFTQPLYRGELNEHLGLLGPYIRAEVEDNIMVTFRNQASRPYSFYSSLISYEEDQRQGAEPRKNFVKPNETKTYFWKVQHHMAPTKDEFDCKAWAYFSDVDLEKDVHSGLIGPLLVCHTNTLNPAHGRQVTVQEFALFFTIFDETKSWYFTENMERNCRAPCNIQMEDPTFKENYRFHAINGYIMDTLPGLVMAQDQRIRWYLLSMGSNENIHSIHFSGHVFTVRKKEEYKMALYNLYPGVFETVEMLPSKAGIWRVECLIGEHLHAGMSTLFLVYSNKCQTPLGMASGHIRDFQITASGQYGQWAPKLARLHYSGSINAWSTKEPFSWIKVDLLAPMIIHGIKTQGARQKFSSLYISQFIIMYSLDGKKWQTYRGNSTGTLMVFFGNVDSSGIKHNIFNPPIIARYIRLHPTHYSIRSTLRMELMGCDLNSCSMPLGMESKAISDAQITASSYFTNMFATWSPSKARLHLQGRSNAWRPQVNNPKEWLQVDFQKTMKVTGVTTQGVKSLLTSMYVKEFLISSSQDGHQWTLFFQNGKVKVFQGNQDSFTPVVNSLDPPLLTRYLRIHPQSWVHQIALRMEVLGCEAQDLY

CCOc1ccc(-c2cc(C)n3nc(C(N)=O)cc3n2)cc1
IC50 (Coagulation factor VIII [1]): 26.8 µM

CC(C=Cc1ccco1)=NCCCCNC(=O)C=Cc1ccco1 [5247489]
IC50 (Coagulation factor VIII [1]): 56.1 µM

CCOC(=O)c1c(NC(=S)NC(=O)c2ccccc2)sc2c1CCC(C)C2 (stereo unspecified) [5523453]
IC50 (Coagulation factor VIII [1]): 27.7 µM

O=C1/C(=C/c2ccc(Br)o2)SC(=S)N1c1cccc(C(F)(F)F)c1 [5737176]
IC50 (Coagulation factor VIII [1]): 6.66 µM | IC50 (Coagulation factor VIII [2]): 9.25 µM | IC50 (Coagulation factor VIII [3]): 8.5 µM

O=C1/C(=C/c2ccc(I)o2)SC(=S)N1c1cccc(C(F)(F)F)c1 [5738875]
IC50 (Coagulation factor VIII [1]): 5.65 µM | IC50 (Coagulation factor VIII [2]): 6.83 µM | IC50 (Coagulation factor VIII [3]): 5 µM

O=C1/C(=C/c2ccc(Br)o2)SC(=S)N1c1ccc([N+](=O)[O-])cc1 [5739991]
IC50 (Coagulation factor VIII [1]): 4.63 µM | IC50 (Coagulation factor VIII [2]): 10.4 µM | IC50 (Coagulation factor VIII [3]): 11.7 µM

N=C(NN=Cc1ccc(F)cc1)NN=Cc1ccc(F)cc1 [5924029]
IC50 (Coagulation factor VIII [1]): 24.5 µM

COc1cc(/C=C2/SC(=S)N(CC(=O)Nc3ccccn3)C2=O)cc(OC)c1OC [6126765]
IC50 (Coagulation factor VIII [1]): 11.9 µM

CCOc1ccc(Cl)cc1/C=C1/SC(=S)N(CC)C1=O [6168356]
IC50 (Coagulation factor VIII [1]): 49.6 µM

O=C1NC(=S)NC(=O)C1=Cc1ccc(-c2cc(Cl)c([N+](=O)[O-])cc2Cl)o1 [6190013]
IC50 (Coagulation factor VIII [1]): 8.48 µM | IC50 (Coagulation factor VIII [2]): 2.11 µM | IC50 (Coagulation factor VIII [3]): 7.5 µM

COc1cc(C=Nn2c(O)csc2=S)ccc1OCCOc1ccc(C(C)(C)C)cc1 [6209549]
IC50 (Coagulation factor VIII [1]): 12.4 µM

O=C1/C(=C\c2ccc(Sc3ccc(Cl)cc3)o2)SC(=S)N1c1ccc([N+](=O)[O-])cc1 [6789536]
IC50 (Coagulation factor VIII [1]): 5.85 µM | IC50 (Coagulation factor VIII [2]): 4.81 µM | IC50 (Coagulation factor VIII [3]): 5.6 µM

O=C1/C(=C/c2ccc(-c3ccc(Cl)cc3Cl)o2)SC(=S)N1c1cccc(C(F)(F)F)c1 [8047577]
IC50 (Coagulation factor VIII [1]): 2.44 µM | IC50 (Coagulation factor VIII [2]): 2.56 µM | IC50 (Coagulation factor VIII [3]): 2.1 µM

O=C1NC(=S)NC(=O)C1=Cc1ccc(-c2ccc(Cl)c(C(=O)O)c2)o1 [8048422]
IC50 (Coagulation factor VIII [1]): 4.17 µM | IC50 (Coagulation factor VIII [2]): 3.89 µM | IC50 (Coagulation factor VIII [3]): 6.7 µM

O=C1NC(=S)NC(=O)C1=Cc1ccc(-c2cccc(C(=O)O)c2Cl)o1 [8056354]
IC50 (Coagulation factor VIII [1]): 6.29 µM | IC50 (Coagulation factor VIII [2]): 6.51 µM | IC50 (Coagulation factor VIII [3]): 6.8 µM
